Melting point and Fungus infestation data for three compounds are collected here from patent US20020099241A1, “Alpha-sulfin-and alpha-sulfonamino acid amides” (priority 1998, published 2002).

Data set [1] deals with Plasmopara viticola. The data set can be described thus: D-1: Action against Plasmopara viticola on vines (residual-protective and residual-curative). Conditions: vine seedlings, spray mixture 0.02% active ingredient, evaluated 6 days after infection; protective/curative not distinguished. It is filed as in vivo. How it is done:
D-1: Action Against Plasmopara viticola on Vines a) Residual-Protective Action
Vine seedlings are sprayed at the 4- to 5-leaf stage with a spray mixture (0.02% active ingredient) prepared from a wettable powder formulation of the test compound. After 24 hours, the treated plants are infected with a sporangia suspension of the fungus. Fungus infestation is evaluated after incubation for 6 days at 95-100% relative humidity and 20° C. […]
b) Residual-Curative Action
Vine seedlings are infected at the 4- to 5-leaf stage with a sporangia suspension of the fungus. After incubation for 24 hours in a humidity chamber at 95-100% relative humidity and 20° C., the infected plants are dried and sprayed with a spray mixture (0.02% active ingredient) prepared from a wettable powder formulation of the test compound. After the spray coating has dried, the treated plants are placed in the humidity chamber again. Fungus infestation is evaluated 6 days after infection.

Data set [2] relates to Phytophthora. The data set can be described thus: D-2: Action against Phytophthora on tomato plants (residual-protective and systemic). It is filed as in vivo. Conditions: spray or soil watering 0.02% active ingredient, evaluated 4-5 days after infection, protective/systemic not distinguished. As to the method:
D-2: Action Against Phytophthora on Tomato Plants
(§1) a) Residual-Protective Action
After a cultivation period of 3 weeks, tomato plants are sprayed with a spray mixture (0.02% active ingredient) prepared from a wettable powder formulation of the test compound. After 48 hours, the treated plants are infected with a sporangia suspension of the fungus. Fungus infestation is evaluated after incubation of the infected plants for 5 days at 90-100% relative humidity and 20° C.
After a cultivation period of 3 weeks, tomato plants are watered with a spray mixture (0.02% active ingredient based on the volume of the soil) prepared from a wettable powder formulation of the test compound. […] After 96 hours, the treated plants are infected with a sporangia suspension of the fungus. Fungus infestation is evaluated after incubation of the infected plants for 4 days at 90-100% relative humidity and 20° C.

Data set [3] relates to Phytophthora. The data set can be described thus: D-3: Action against Phytophthora on potato plants (residual-protective and systemic). Conditions: potato plants (Bintje variety), spray or soil watering 0.02% active ingredient, evaluated 4 days after infection; protective/systemic not distinguished. The format is in vivo. As to the method: D-3: Action Against Phytophthora on Potato Plants
as §1
2-3 week old potato plants (Bintje variety) are sprayed with a spray mixture (0.02% active ingredient) prepared from a wettable powder formulation of the test compound. After 48 hours, the treated plants are infected with a sporangia suspension of the fungus. Fungus infestation is evaluated after incubation of the infected plants for 4 days at 90-100% relative humidity and 20° C.
2-3 week old potato plants (Bintje variety) are watered with a spray mixture (0.02% active ingredient based on the volume of the soil) prepared from a wettable powder formulation of the test compound. […] After 48 hours, the treated plants are infected with a sporangia suspension of the fungus. Fungus infestation is evaluated after incubation of the infected plants for 4 days at 90-100% relative humidity and 20° C. Fungal infestation is effectively controlled with compounds of Tables 1 to 37.

Broadly, the melting point is the temperature of the solid-liquid transition. As for `CCS(=O)(=O)N[C@H](C(=O)NCCc1ccc(OCCCc2cccc(C(F)(F)F)c2)c(OC)c1)C(C)C`, the melting point was 119 to 120 °C.

`COc1cc(CCNC(=O)[C@@H](NS(C)(=O)=O)C(C)C)ccc1OCCCc1ccc(Cl)cc1` registered a melting point of 128 to 130 °C.

On to `CCS(=O)(=O)N[C@H](C(=O)NCCc1ccc(OCC(C)c2ccc(F)cc2)c(OC)c1)C(C)C` (stereo partly drawn) [Compound A1.01, (S)-2-Ethanesulfonylamino-N-(2-{4-[2-(4-fluoro-phenyl)-propoxy]-3-methoxy-phenyl}-ethyl)-3-methyl-butyramide], for which the melting point was 107 to 111 °C. Besides, in data set [1], the Fungus infestation entry was “completely inhibit fungal infestation”. In addition, the Fungus infestation entry in data set [2] was “completely inhibit fungal infestation”. In addition, the Fungus infestation result in data set [3] is “completely inhibit fungal infestation”.
